Data on 4 molecules can be found in patent US9220264B2, “Multimeric forms of antimicrobial peptides” (Singapore Health Services Pte Ltd., priority 2008, dated 2015).

Data set [1] concerns human conjunctival epithelial cells. The data set is classed as cell-based. On the procedure: The results are from four independent experiments and data points show the mean and standard deviations. The X axis indicates the peptide concentration in μg/ml and the Y axis indicates the % cell viability. The cytotoxicity of V2 dimer were tested against human conjunctival cells according to the method described in WO 2007/126392 and compared with native hBD3. […] Wildtype hBD3 was cytotoxic at concentrations of about 15 μg/ml, however, the V2 dimer was not cytotoxic at concentrations of 100 μg/ml.

The subject of data set [2] is Clinical Cadida albicans DF2672R Source: Urine. The data set is classed as cell-based, Candida albicans. On the procedure: (§1) MICs was determined by broth macrodilution method modified from that described by the National Committee for Clinical Laboratory Standards (NCCL). The Mueller Hinton Broth (MHB) at ⅙ strength and without addition of Ca^2+ and Mg^2+ was used for dilution. Serial twofold dilutions of V2 dimer solution was prepared in MHB (⅙ strength) in test tubes. 1 ml of inoculum of test organisms in MHB (⅙ strength) was added to 1 ml of each dilution of V2 dimer to yield as final concentration of 10^4 to 10^5 colony forming units/ml in each test tube. The tubes were incubated at 35° C. for 16 to 20 hours. A positive control containing only the broth and organism, and a negative control tube containing only the broth were also incubated in parallel to the test samples. The above was repeated for each different test organism in separate experiments. The MIC of V2 dimer peptide for each clinical isolate or reference organism was read as the lowest concentration of peptide that inhibited visible growth of the test organism.
(§2) The MIC was also determined for other peptides and compared to gentamicin.

Data set [3] has as its system Escherichia coli ATCC25922. The data set is classed as cell-based. On the procedure: as §1, §2
Data set [4] relates to Clinical Pseudomonas aeruginosa PAE 239 DM5790/07 Source: Wound. It is filed as cell-based. On the procedure: as §1, §2
Data set [5] relates to Clinical Escherichia coli DB16027 Source: Blood. The data set is classed as cell-based. On the procedure: as §1, §2
For data set [6], the system named is Clinical Pseudomonas aeruginosa DM 023104 Source: Eye. The data set is classed as cell-based. Particulars: Clinical DM 023104 Source: Eye. On the procedure:
as §1, §2

The subject of data set [7] is Clinical Pseudomonas aeruginosa PAE 230 DR4877/07 Source: Sputum. It is filed as cell-based. On the procedure:
as §1, §2

Data set [8] has as its system Clinical Pseudomonas aeruginosa PAE 249 DM15013 Source: Wound. The data set is classed as cell-based. Particulars: Clinical PAE 249 DM15013 Source: Wound. On the procedure:
as §1, §2

Data set [9] deals with Clinical Pseudomonas aeruginosa 07DM023376 Source: Eye. It is filed as cell-based. Particulars: Clinical 07DM023376 Source: Eye. On the procedure:
as §1, §2

Data set [10] relates to Clinical Staphylococcus aureus DM4001 Source: Eye. The data set is classed as cell-based. On the procedure: as §1, §2
The test system of data set [11] is Clinical Escherichia coli DU46381R Source: Urine. The data set is classed as cell-based. On the procedure: as §1, §2
Data set [12] relates to Clinical Pseudomonas aeruginosa PAE 240 DU14476/07 Source: Urine. The data set is classed as cell-based. Particulars: Clinical PAE 240 DU14476/07 Source: Urine. On the procedure: as §1, §2
The test system of data set [13] is Fusarium solani ATCC 36031. It is filed as cell-based. On the procedure: as §1, §2
Data set [14] deals with Clinical Pseudomonas aeruginosa 07DM 023257 Source: Eye. It is filed as cell-based. Particulars: Clinical 07DM 023257 Source: Eye. On the procedure:
as §1, §2

The test system of data set [15] is Candida albicans ATCC10231. The data set is classed as cell-based. On the procedure: as §1, §2
For data set [16], the system named is Clinical Pseudomonas aeruginosa DM 023155 Source: Eye. It is filed as cell-based. Particulars: Clinical DM 023155 Source: Eye. On the procedure:
as §1, §2

Data set [17] concerns Methicillin-resistant staphylococcus aureus (MRSA) DM09808R Source: Eye. It is filed as cell-based. Particulars: MHB 1/6 strength; 35° C.; 16 to 20 hours. On the procedure:
as §1, §2

The test system of data set [18] is Clinical Pseudomonas aeruginosa PA4-PAE 249 DM15013 Source: Wound. It is filed as cell-based. Particulars: USP Phosphate Buffer pH 7.2, 4 hrs, 35° C. On the procedure:
(§3) The method for testing antimicrobial activity of antimicrobial peptides used an absolute killing procedure as described below. The bacterial cultures were grown on Trypticase Soy Agar (TSA) […], and the yeast culture on Sabouraud Dextrose Agar ([…] 35° C. for 16 hours. The organisms were harvested by centrifugation and washing twice in Phosphate buffer, pH 7.2 (United States Pharmacopeia, USP) at 20° C. The freeze-dried antimicrobial compound was dissolved in purified water and distributed into screw-capped plastic tubes at a concentration of 1,000 micro-grams (μg) per ml. These served as stock solutions and were kept at -20° C. On the day of conducting the test, one tube of the stock solution was defrosted and diluted in purified water to a concentration of 500 μg/ml. Thereafter, further dilutions were carried out in either USP Phosphate Buffer, pH 7.2 or other solutions (including but not limited to 10 mM sodium phosphate buffer, pH 7.4, 10 mM potassium buffer 7.2 or 155.2 mM NaCl), to the test concentrations required, normally ranging from 6.25 μg/ml to 50 μg/ml. Ten micro-liters (μl) of the test organism of standardised concentration was inoculated into one ml of the compound test solution of specific test concentration to provide a final count of between 1×10^5 cfu/ml and 1×10^6 cfu/ml as far as possible. The inoculated test solutions were than incubated at 35° C. for 4 hours. The incubation temperature and time may be varied as required. After incubation, the antimicrobial activity of the test solutions was inactivated by a 10-fold dilution in D/E Neutralising Broth (NB). Further dilutions were carried out in the NB, and plated out in TSA for bacteria, and SDA for yeast culture. The plates were incubated at 35° C. for 72 hours. The viable count of the survivor organisms was then determined. As an inoculum control, the test organism was inoculated, parallel to the Test, into the buffer used in the preparation of the test solutions instead and incubated under the same condition as the Test. The viable count of the inoculum control was determined as for the Test. […] The method described above was used for Examples 3-7 and in particular, the method for gentamicin in Example 6 is similar except that gentamicin was substituted for the antimicrobial compound.

Data set [19] deals with Clinical Pseudomonas aeruginosa PA3-PAE 240 DU14476/07 Source: Urine. It is filed as cell-based. Particulars: USP Phosphate Buffer pH 7.2, 4 hrs, 35° C. On the procedure:
as §3

Data set [20] relates to Clinical Pseudomonas aeruginosa PA1-PAE 230 DR4877/07 Source: Sputum. It is filed as cell-based. Particulars: USP Phosphate Buffer pH 7.2, 4 hrs, 35° C. On the procedure:
as §3

Data set [21] has as its system Clinical Pseudomonas aeruginosa Ps-C 07DM023155 Source: Eye. It is filed as cell-based. Particulars: USP Phosphate Buffer pH 7.2, 4 hrs, 35° C. On the procedure: as §3
Data set [22] deals with Clinical Pseudomonas aeruginosa PA2-PAE 239 DM5790/07 Source: Wound. It is filed as cell-based. Particulars: USP Phosphate Buffer pH 7.2, 4 hrs, 35° C. On the procedure: as §3
Data set [23] relates to Clinical Pseudomonas aeruginosa Ps-D 07DM023104 Source: Eye. The data set is classed as cell-based. Particulars: USP Phosphate Buffer pH 7.2, 4 hrs, 35° C. On the procedure:
as §3

The mark [24] stands for this setting: Clinical PAE 239 DM5790/07 Source: Wound.
[25] abbreviates: Clinical PAE 230 DR4877/07 Source: Sputum.
Setting [26] is: MHB 1/6 strength, 35° C., 16 to 20 hours.

≈ marks a conversion by molar mass, not a printed value. Read-outs that look alike come from different tables or passages of the source. Peptide text beside a SMILES is read from it.

With “GIINTLQKYYCRVRGGRCAVLSCLPKEEQIGKCSTRGRKCCRRKK (Homo sapien) [Wildtype hBD3, reference compound]”, in data set [1], the “concentration at which cytotoxic” value was “about 15 μg/ml”.

By MIC is commonly meant the lowest concentration that inhibits growth of the organism. Consider `CC(C)[C@H](NC(=O)[C@H](CCCCN)NC(=O)[C@H](CCCNC(=N)N)NC(=O)CNC(=O)[C@@H](N)CCCNC(=N)N)C(=O)N[C@H](C(=O)N[C@@H](CCCNC(=N)N)C(=O)N[C@@H](CCCNC(=N)N)C(=O)O)C(C)C` [V2-8AA, RGRKVVRR] (H-RGRKVVRR-OH; N-terminus and C-terminus assumed), for which the MIC in data set [2], in [3], in data set [4] (setting [24]), in data set [5] (Clinical DB16027 Source: Blood), in data set [6] and in [7] (setting [25]) was greater than 50 µg/mL each time. Besides, the minimal inhibitory concentration (MIC) in data set [8] is greater than 50 µg/mL; in data set [9], greater than 50 µg/mL; in [10] it was greater than 50 µg/mL; in [11], 50 µg/mL (≈ 48.7 µM); in data set [12], 25 µg/mL (≈ 24.4 µM); in [13], greater than 100 µg/mL. Moreover, the MIC in data set [14], in [15] and in [16] was greater than 50 µg/mL throughout.

As for Gentamicin, the MIC in data set [4] (setting [26]) worked out at 25 µg/mL; in data set [5] (setting [26]), 0.78 µg/mL; in [17], 12.5 µg/mL; in data set [7] (setting [26]), 400 µg/mL. The “Log Reduction” value came out at 2.28 in [18] (3.125 ug/ml); 2.41 in data set [18] (6.25 ug/ml); 2.50 in data set [18] (12.5 ug/ml); 2.60 in data set [18] (25.0 ug/ml); 2.63 in [18] (50.0 ug/ml); 3.66 in data set [19] (3.125 ug/ml). Moreover, the “Log Reduction” value is recorded as 3.76 in [19] (6.25 ug/ml); 3.88 in data set [19] (12.5 ug/ml); 4.18 in [19] (25.0 ug/ml); 4.57 in data set [19] (50.0 ug/ml); 0.22 in data set [20] (3.125 ug/ml); 0.35 in [20] (6.25 ug/ml). Further, the “Log Reduction” value is 0.65 in data set [20] (12.5 ug/ml); 0.54 in [20] (25.0 ug/ml); 0.39 in data set [20] (50.0 ug/ml); greater than 4.61 in [21] (3.125 ug/ml); greater than 4.61 in data set [21] (6.25 ug/ml); greater than 4.61 in data set [21] (12.5 ug/ml). Also, the “Log Reduction” value in data set [21] (25.0 ug/ml) is on record as greater than 4.61; in [21] (50.0 ug/ml) it was greater than 4.61; in data set [22] (3.125 ug/ml), 3.02; in data set [22] (6.25 ug/ml), 3.07; in data set [22] (12.5 ug/ml), 3.03; in data set [22] (25.0 ug/ml), 3.04. Moreover, the “Log Reduction” value in data set [22] (50.0 ug/ml) is recorded as 3.31; in data set [23] (3.125 ug/ml), greater than 4.33; in data set [23] (6.25 ug/ml) it was greater than 4.33; in data set [23] (12.5 ug/ml), greater than 4.33; in data set [23] (25.0 ug/ml), greater than 4.33; in [23] (50.0 ug/ml), greater than 4.33.

As to `CC(C)[C@H](NC(=O)[C@@H](NC(=O)[C@H](CCCNC(=N)N)NC(=O)[C@H](CCCNC(=N)N)NC(=O)[C@@H](NC(=O)[C@@H](NC(=O)[C@H](CCCCN)NC(=O)[C@H](CCCNC(=N)N)NC(=O)CNC(=O)[C@@H](N)CCCNC(=N)N)C(C)C)C(C)C)C(C)C)C(=O)O` [V4 monomer, RGRKVVRRVV] (H-RGRKVVRRVV-OH; N-terminus and C-terminus assumed), the MIC in data set [2], in [3], in [4] (setting [24]), in [5] (Clinical DB16027 Source: Blood), in [6] and in data set [7] (setting [25]) was greater than 50 µg/mL throughout. Besides, the MIC was greater than 50 µg/mL in data set [8]; greater than 50 µg/mL in data set [9]; greater than 50 µg/mL in [10]; greater than 50 µg/mL in data set [11]; greater than 50 µg/mL in data set [12]; greater than 100 µg/mL in [13]. Further, the MIC was greater than 50 µg/mL in data set [14], 25 µg/mL (≈ 20.4 µM) in [15] and greater than 50 µg/mL in [16].
